Results taken from patent publication US11389449B2, “Treatment of metabolic syndrome with an sGC stimulator” (Cyclerion Therapeutics, Inc., priority 2017, dated 2022).

Experiments:
Format in all cases: in vivo
ZSF1 obese rats = assay: ZSF1 rat study: serum clinical chemistry (cholesterol, triglycerides), body weight, clinical observations
From the text: Blood and 24-hour urine samples were obtained from all animals at day 0 (15 weeks of age; prior to the initiation of enalapril treatment). Animals in Groups 3, 7, 8 and 9 were placed on drinking water containing enalapril and kept on Purina 5008 rodent chow (C13000). Animals in Group 1, 2, 4, 5 and 6 were kept on Purina 5008 rodent chow and drinking water. Ten days after the initiation of enalapril treatment, blood and 24-hour urine samples were collected from all animals. After day 10 blood and urine collections, animals in Groups 4, 5 and 6 received Compound I at 1, 3 and 10 mg/kg/day, respectively for 11 weeks. In addition to enalapril treatment, animals in Groups 7, 8 and 9 received Compound I at 1, 3 and 10 mg/kg/day, respectively for an additional 11 weeks.
Body weight and 24-hour water intake were obtained at least once every other week. 24-hour food intake was measured at baseline and week 8.
Plasma (for biomarker) and serum (for clinical chemistry analysis) samples were collected from all treatment groups at baseline, day 10, weeks 5 and 9 prior to placing the animals into the metabolic cages. Plasma samples were obtained from Groups 3-9 for measurement of compound exposure levels at weeks 5 and 11. Terminal plasma and serum samples were obtained at necropsy.
For serum samples, blood was collected in serum separator tubes, maintained at room temperature for at least 30 minutes and then centrifuged at 6000 rpm for 10 minutes. Serum samples were stored at −80° C. until analysis. Urine and serum samples were analyzed using the Randox Daytona Clinical Chemistry Analyzer. All measurements were performed in accordance with manufacturer's instructions.
Animal #8 (in Group 3, ZSF1—enalapril 3 mg/kg/day) was found dead 3 days after the initiation of enalapril treatment.

[1] = system: obese/high fat diet C57Bl/6J mice; assay: Diet induced obesity (DIO) mouse model: body weight and food intake; settings: DIO HFD mice, approx 6 mg/kg in diet
From the text: (§1) The objective of this animal study was to evaluate the effects of Compound I in the mouse diet induced obesity (DIO) model. Assessments included body weight, food intake, oral glucose tolerance test (OGTT) and fasting plasma biomarkers of metabolic control.
(§2) Male C57Bl/6J mice with baseline body weights of 25.0-29.0 grams (lean controls) and 31.5-45.0 grams (obese/high fat diet treated) respectively, were used for this study. The lean mice (n=8) were maintained on a standard chow diet. The obese mice were given 60% high fat diet (HFD) starting at 6 weeks of age. All animals were allowed free access to drinking water and chow. The study was begun when the mice were 12 weeks of age and concluded after 4 weeks (16 weeks of age). The obese control group (n=8 mice) was maintained on HFD. The Compound I group (n=8 obese mice) was treated with HFD containing 90 mg Compound I/kg (an approximate dose of 6 mg/kg). Body weights were determined twice weekly and food intake was measured daily for 28 days. An OGTT was performed on each animal at day 28 or 29 and the animals were sacrificed on the following day. On the terminal day, 3 hour fasted blood was collected for compound concentrations and plasma biomarkers analysis including glucose, insulin and triglycerides. Organs were collected, weighed and snap frozen in liquid nitrogen for further analysis.

[2] = system: obese/high fat diet C57Bl/6J mice; assay: DIO mouse model: oral glucose tolerance test; settings: DIO HFD mice, approx 6 mg/kg in diet, week 4
From the text: as §1, §2

[3] = obese ZSF1 rats, 3 and 10 mg/kg, compared to placebo and enalapril, not statistically significant

## OC(CNc1nc(-c2cc(-c3ccon3)n(Cc3ccccc3F)n2)ncc1F)(C(F)(F)F)C(F)(F)F [Compound I]
ZSF1 obese rats; obese ZSF1 rats
  reduction of weight: No effects were observed
ZSF1 obese rats; [3]
  effect on cholesterol levels: some reduction in cholesterol was observed
  effect on triglyceride levels: some reduction in TGs was observed
ZSF1 obese rats; rat, in vivo, 1 mg/kg/day
  clinical observation: enlarged left kidney's filled with brown fluid consistent with hydronephrosis
[1]; Day 28, P<0.0001
  body weight gain change vs obese controls: −37%
[1]; Day 28, P<0.05
  increase in food intake vs obese controls: 11%
[1]; days 12-14 and 16-28
  cumulative food intake vs obese controls: Significant increases
[1]; from 0.5 weeks for the duration of the study
  body weight gain vs obese controls: significant reductions
[2]
  Fasting blood glucose: not reduced
[2]; P<0.05
  OGTT area above baseline change vs obese controls: −47%
  OGTT area under the curve change vs obese controls: −22%
[2]; from 30 to 120 minutes
  blood glucose excursion in OGTT vs obese controls: significant reductions
